Reference: ChEMBL document CHEMBL1201862, “PubChem BioAssay data set” (2004)
The source made the active and inactive calls.

Columns and labels:
Caspase-6 = biological target: T1, Caspase-6 (Homo sapiens, UniProt P55212); test: human caspase-6 inhibitors, dose response, biochemical, VEID-R110 fluorescence, cherry-pick (AID 720632)
T1 sequence (P55212 whole entry): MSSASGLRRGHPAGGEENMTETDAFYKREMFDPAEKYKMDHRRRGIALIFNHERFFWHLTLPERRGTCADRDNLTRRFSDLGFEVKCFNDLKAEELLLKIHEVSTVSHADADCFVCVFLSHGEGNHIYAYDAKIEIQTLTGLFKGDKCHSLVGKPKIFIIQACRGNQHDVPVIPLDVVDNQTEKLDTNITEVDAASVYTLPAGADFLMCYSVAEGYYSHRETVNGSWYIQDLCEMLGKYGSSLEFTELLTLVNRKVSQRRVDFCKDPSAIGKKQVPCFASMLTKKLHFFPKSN

[1] = biological target: T2, Small ubiquitin-related modifier 1 (Homo sapiens, UniProt P63165); test: inhibitors of SUMO1 peptide binding, dose response, biochemical, fluorescence polarization, uHTS hits (AID 624382); type: functional; settings: read-out: IC50_Mean
T2 sequence (P63165 whole entry, the tested form may be a part): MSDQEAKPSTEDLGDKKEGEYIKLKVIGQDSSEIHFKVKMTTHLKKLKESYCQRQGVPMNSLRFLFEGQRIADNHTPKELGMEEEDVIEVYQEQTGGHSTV

[2] = biological target: T3, RNA-binding protein pos-1 (Caenorhabditis elegans, UniProt G5EF15); test: inhibitors of POS-1/mex-3 RNA binding, dose response, biochemical, fluorescence polarization (AID 1964);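 also: purified POS-1 fused to maltose binding protein made in E. coli; potency of compounds blocking POS-1 binding to fluorescent RNA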
T3 sequence (G5EF15 whole entry): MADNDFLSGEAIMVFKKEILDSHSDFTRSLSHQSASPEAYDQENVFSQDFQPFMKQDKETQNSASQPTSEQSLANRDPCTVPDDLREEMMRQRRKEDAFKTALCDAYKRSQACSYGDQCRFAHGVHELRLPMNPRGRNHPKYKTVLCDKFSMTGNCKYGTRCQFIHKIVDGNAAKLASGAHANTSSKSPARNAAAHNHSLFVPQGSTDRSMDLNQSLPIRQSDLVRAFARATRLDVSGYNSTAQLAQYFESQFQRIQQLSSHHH

Large T antigen = Large T antigen (Simian virus 40, UniProt P03070); type: functional, Betapolyomavirus macacae;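 also: Confirmatory-stage PubChem screen for compounds that inhibit SV40 T antigen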
Chain of Large T antigen (P03070 whole entry): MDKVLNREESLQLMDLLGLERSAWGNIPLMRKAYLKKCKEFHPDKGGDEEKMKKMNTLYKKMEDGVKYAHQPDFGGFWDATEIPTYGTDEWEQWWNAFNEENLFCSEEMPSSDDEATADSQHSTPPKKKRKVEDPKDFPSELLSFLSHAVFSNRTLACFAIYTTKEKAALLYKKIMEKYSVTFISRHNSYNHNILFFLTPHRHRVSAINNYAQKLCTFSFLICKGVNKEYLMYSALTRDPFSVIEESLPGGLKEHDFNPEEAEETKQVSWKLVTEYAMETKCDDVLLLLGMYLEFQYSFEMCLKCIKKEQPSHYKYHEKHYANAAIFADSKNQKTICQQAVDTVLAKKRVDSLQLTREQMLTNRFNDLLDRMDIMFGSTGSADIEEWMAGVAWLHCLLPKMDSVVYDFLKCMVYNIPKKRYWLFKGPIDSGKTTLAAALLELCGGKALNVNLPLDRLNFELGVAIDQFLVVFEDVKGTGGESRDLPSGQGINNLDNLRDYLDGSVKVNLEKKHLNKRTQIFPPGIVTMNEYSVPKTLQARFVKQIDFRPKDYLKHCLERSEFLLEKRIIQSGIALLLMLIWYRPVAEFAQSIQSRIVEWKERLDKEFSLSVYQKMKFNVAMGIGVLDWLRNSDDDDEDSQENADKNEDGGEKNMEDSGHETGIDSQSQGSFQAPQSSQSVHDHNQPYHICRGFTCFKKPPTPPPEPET

[3] = biological target: T4, Zinc finger protein mex-5 (Caenorhabditis elegans, UniProt Q9XUB2); test: MEX-5/TCR-2 RNA interaction inhibitors, dose response, biochemical, C. elegans, fluorescence polarization (AID 1960)
T4 sequence (Q9XUB2 whole entry): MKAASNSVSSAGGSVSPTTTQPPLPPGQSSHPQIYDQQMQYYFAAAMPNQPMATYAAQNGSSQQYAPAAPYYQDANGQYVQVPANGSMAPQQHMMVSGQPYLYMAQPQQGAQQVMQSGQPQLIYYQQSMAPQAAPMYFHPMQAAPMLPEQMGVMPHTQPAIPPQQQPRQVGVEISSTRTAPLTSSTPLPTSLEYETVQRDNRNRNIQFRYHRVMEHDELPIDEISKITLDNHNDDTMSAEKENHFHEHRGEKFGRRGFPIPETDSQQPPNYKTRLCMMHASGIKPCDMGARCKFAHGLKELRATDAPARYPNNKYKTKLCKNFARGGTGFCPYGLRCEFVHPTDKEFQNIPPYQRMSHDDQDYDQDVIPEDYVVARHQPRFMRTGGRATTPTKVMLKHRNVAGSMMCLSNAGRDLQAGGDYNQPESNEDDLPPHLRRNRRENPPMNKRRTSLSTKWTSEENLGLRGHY

[4] = biological target: T2, Small ubiquitin-related modifier 1; test: inhibitors of SUMO1 partner interactions, dose response, biochemical, FRET (AID 624383); type: functional; settings: read-out: IC50_Mean
Beta-galactosidase = Beta-galactosidase (Escherichia coli, UniProt Q8VNN2); test: Dose response counterscreen for EBI2 assay utilizing the enzyme, b-galactosidase.; type: functional
Chain of Beta-galactosidase (Q8VNN2 whole entry): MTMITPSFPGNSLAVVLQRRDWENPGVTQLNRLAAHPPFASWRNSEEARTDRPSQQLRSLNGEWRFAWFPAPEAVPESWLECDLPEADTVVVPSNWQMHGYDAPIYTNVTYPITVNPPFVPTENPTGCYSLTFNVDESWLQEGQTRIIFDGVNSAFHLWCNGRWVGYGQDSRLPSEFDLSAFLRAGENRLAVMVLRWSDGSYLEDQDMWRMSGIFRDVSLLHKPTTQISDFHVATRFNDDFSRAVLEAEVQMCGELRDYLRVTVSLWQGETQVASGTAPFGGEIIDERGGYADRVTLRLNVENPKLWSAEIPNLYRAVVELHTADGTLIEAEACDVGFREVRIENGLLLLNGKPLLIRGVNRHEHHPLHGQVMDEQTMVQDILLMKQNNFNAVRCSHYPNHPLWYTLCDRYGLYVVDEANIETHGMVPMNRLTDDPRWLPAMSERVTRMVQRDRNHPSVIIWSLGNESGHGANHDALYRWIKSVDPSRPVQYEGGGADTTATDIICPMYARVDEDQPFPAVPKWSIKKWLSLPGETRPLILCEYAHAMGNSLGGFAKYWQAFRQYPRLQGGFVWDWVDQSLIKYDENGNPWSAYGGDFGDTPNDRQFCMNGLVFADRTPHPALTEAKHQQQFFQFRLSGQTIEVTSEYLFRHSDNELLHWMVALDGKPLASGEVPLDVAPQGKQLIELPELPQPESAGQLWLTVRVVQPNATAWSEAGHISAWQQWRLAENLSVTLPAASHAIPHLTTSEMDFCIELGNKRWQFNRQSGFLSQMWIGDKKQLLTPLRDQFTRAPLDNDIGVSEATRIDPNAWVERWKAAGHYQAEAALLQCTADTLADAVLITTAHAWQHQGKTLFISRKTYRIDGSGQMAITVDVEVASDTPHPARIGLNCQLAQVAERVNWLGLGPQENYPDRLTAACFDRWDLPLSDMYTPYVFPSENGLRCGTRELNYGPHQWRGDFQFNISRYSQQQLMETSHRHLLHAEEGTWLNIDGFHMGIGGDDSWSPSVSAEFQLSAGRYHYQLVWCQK

[5] = biological target: T5, Long-chain-fatty-acid--AMP ligase FadD28 (Mycobacterium tuberculosis, UniProt P9WQ59); test: Fluorescence polarization aasay to screen for inhibitors that compete for the binding of FadD28 to a bisubstrate Measured in Biochemical System Using Plate Reader - 2147-01_Inhibitor_Dose_CherryPick_Activity.; type: functional, Mycobacterium tuberculosis H37Rv
T5 sequence (P9WQ59 whole entry): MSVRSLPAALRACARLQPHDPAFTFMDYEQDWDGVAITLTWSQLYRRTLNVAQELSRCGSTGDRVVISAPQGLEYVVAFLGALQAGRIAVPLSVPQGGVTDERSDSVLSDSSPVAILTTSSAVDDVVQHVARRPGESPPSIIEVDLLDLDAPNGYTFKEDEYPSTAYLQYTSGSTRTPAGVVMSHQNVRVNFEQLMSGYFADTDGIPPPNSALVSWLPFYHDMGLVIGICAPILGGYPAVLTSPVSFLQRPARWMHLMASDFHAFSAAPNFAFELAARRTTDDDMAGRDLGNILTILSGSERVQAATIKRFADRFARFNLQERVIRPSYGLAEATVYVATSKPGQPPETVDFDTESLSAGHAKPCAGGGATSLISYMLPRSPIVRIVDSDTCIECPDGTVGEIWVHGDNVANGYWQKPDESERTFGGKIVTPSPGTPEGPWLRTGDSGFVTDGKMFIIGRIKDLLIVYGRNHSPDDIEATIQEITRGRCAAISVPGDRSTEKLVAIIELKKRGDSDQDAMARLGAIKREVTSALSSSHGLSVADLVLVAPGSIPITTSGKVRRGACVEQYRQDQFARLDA

Protein Tat = biological target: T6, Protein Tat (Human immunodeficiency virus type 1 group M subtype B (isolate HXB2)(HIV-1), UniProt P04608); type: functional;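 also: tat binding to TAR RNA read out by fluorescence polarization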
T6 sequence (P04608 whole entry): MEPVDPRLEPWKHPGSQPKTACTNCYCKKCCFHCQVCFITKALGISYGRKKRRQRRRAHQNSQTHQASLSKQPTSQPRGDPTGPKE

[6] = off-target signal loss in HeLa-CEM21 co-culture – HeLa F-luc CTL cells, cherry-picked, counter-screen for HIV-1 Env fusion inhibitor project, dose response (AID 652040); type: functional, cell-based;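 also: potency for signal decrease marking cytotoxic or nonspecific inhibition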
[7] = inhibitors of HIV Env-driven cell fusion, dose response, cherry-pick (AID 652057); type: functional, cell-based
[8] = CEM21 lymphoblast cell cytotoxicity, dose response, cytotoxicity control for viral fusion inhibitor project, CellTiter-Glo luminescence, cherry-picked (AID 652042); type: functional, cell-based;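 also: potency for signal decrease meaning cytotoxicity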
[9] = biological target: Arf-GAP with SH3 domain, ANK repeat and PH domain-containing protein 1 (Homo sapiens, UniProt Q9ULH1); type: functional;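 also: biochemical fluorescence polarization dose–response screen measuring inhibition of ASAP1; ASAP1 GAP domain stimulating GTP hydrolysis by truncated human ARF1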
Chain of Arf-GAP with SH3 domain, ANK repeat and PH domain-containing protein 1 (Q9ULH1 whole entry, the tested form may be a part): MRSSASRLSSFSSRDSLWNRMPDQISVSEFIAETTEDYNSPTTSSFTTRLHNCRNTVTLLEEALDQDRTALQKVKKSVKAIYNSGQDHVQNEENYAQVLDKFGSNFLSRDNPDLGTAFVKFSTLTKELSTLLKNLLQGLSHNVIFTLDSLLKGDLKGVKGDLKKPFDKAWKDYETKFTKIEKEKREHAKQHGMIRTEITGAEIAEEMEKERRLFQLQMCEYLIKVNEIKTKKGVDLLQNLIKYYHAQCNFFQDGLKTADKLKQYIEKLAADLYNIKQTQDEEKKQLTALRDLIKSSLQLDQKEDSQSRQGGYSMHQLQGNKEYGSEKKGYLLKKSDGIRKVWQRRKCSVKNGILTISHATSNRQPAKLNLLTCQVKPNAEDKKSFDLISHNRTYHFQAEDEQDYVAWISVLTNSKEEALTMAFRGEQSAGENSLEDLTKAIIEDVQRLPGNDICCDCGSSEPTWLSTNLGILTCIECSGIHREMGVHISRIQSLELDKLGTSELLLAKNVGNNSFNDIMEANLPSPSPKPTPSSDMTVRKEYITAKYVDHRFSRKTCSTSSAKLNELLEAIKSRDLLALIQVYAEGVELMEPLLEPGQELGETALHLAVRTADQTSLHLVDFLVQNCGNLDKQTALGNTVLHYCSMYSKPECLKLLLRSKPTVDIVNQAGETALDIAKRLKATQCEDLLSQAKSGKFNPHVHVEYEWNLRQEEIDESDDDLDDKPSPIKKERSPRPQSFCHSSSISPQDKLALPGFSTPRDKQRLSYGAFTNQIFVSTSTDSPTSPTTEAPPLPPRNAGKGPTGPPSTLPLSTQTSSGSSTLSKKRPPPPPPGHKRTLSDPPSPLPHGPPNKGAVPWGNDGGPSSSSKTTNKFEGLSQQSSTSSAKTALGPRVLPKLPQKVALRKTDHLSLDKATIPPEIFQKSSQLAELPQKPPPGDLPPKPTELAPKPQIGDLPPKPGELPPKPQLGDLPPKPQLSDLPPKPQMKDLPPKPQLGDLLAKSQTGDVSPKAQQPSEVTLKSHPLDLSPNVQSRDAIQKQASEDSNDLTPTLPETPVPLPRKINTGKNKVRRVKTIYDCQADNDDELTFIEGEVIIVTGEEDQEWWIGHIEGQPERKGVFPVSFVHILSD

[10] = cytotoxicity in OVCAR8 ovarian cancer cells, dose response, PAX8 project, cell-based, plate reader, dry powder samples (AID 743197); type: functional; settings: OVCAR-8
[11] = IGROV1 ovarian cancer cell cytotoxicity, dose response, PAX8 inhibitor project, plate reader, dry powder samples (AID 743043); type: functional, cell-based; settings: IGROV-1
[12] = A2780 ovarian cancer cell cytotoxicity, dose response, cytotoxicity control, plate reader, dry powder samples (AID 743046); type: functional, cell-based
[13] = NIH:OVCAR-3 ovarian cancer cell cytotoxicity, dose response, PAX8 inhibitor project, plate reader, dry powder samples (AID 743044); type: functional, cell-based
Paired box protein Pax-8 = Paired box protein Pax-8 (Homo sapiens, UniProt Q06710); test: inhibitors of PAX8-driven TPO luciferase reporter, dose response, RMG-I cells, cherry-pick (AID 687027); type: functional, cell-based;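 also: luciferase reporter driven by Pax8 target thyroperoxidase promoter measured by SteadyGlo luminescence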
Chain of Paired box protein Pax-8 (Q06710 whole entry): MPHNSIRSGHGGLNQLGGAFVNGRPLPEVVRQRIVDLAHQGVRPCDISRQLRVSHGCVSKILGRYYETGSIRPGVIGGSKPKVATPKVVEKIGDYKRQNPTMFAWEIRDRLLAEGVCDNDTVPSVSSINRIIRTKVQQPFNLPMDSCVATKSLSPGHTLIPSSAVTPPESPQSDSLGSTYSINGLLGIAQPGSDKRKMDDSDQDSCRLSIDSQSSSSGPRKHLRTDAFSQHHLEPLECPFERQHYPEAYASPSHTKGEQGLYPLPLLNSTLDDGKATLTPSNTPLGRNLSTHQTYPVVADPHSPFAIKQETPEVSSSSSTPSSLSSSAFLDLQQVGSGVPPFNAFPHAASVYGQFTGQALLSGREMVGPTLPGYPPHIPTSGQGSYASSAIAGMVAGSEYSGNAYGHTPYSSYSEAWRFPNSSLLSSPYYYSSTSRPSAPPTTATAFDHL

With `COc1cc(/C=C2\CCc3c2nc2ccccc2c3C(=O)O)cc(OC)c1OC` the AC50 (Caspase-6) was 6.8 µM (active), the IC50 [1] was > 66.6 µM (inactive) and the EC50 [2] was 94 µM (active). For the same molecule, the IC50 (Large T antigen) was 35 µM (active), the EC50 [3] was 34.8 µM (active) and the IC50 [4] was 12.5 µM (active).

In the case of `COc1ccc(N2CCN(C(=O)c3cc4c(s3)-c3ccccc3OC4)CC2)cc1`, the IC50 (Beta-galactosidase) is reported as > 80 µM (inactive).

In the case of `Cc1ccc(NC(=O)CN2C(=O)S/C(=C\c3cc(C)n(-c4cccc(C(=O)O)c4)c3C)C2=O)cc1`, the EC50 [2] is reported as > 300 µM (not active), the EC50 [3] is reported as > 300 µM (not active) and the AC50 [5] is reported as 2.03 µM (active).

For `Cc1cc(O)cc(O)c1C(=O)Cc1cnn(-c2ccccc2)c1`, the IC50 (Protein Tat) was > 100 µM (inconclusive).

With `Cc1cc(C(C)(C)C)oc1C(=O)N(CC(=O)NC1CCCC1)Cc1ccc(Cl)cc1` the AC50 [6] was > 70 µM (inactive), the AC50 [7] was 6.45 µM (active) and the AC50 [8] was 49.5 µM (active).

For `COc1ccc([N+](=O)[O-])cc1NC(=O)c1ccc(-n2nc(C)cc2C)cc1`, the IC50 [9] was 28 µM (inactive).

In the case of `CN1CCN(C(=O)/C=C/c2ccc(Cl)cc2)CC1`, the IC50 (Beta-galactosidase) is reported as > 80 µM (inactive).

For `CCN1CCN(c2ccc(S(=O)(=O)N3CCOCC3)cc2NC(=O)/C=C/c2ccc(C)cc2)CC1`, the IC50 (Beta-galactosidase) was > 80 µM (inactive).

For `COc1cccc(CNC(=O)COc2cc(O)c3c(c2)OC(C)(C)CC3=O)c1`, the AC50 [5] was 79.7 µM (active).

With `COc1ccc(C(=O)NCc2ccc(C)cc2)cc1S(=O)(=O)N1CCOCC1` the AC50 [5] was 64.8 µM (active).

With `O=C(C[C@@H]1CC[C@@H]2[C@H](COC[C@@H](O)CN2C(=O)Nc2ccc(Cl)c(Cl)c2)O1)NCc1ccc(Cl)cc1` the AC50 [10] was 53.3 µM (active), the AC50 [11] was 33.9 µM (active) and the AC50 [12] was 60 µM (active). For the same molecule, the AC50 [13] was 33.5 µM (active) and the AC50 (Paired box protein Pax-8) was 8.87 µM (active).
